The source of these data is paper PMC8694002 (RSC Advances, 2021).

One test has as its target T1, TCPTP (13–358) (Homo sapiens, UniProt P17706).
T1 sequence (P17706 13-358): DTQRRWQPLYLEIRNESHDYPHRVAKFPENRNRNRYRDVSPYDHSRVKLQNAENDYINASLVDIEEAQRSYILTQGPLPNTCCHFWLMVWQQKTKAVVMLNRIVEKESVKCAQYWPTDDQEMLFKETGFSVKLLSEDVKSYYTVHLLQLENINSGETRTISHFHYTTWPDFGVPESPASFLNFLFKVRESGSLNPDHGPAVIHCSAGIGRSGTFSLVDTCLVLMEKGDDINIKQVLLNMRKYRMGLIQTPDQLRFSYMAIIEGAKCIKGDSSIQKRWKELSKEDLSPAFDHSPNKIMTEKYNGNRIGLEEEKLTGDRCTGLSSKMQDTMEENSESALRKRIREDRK
Kind of test: TCPTP inhibition assay with DiFMUP as substrate. Format: biochemical. Conditions: read-out: IC50 TCPTP; means ± SD of three replications.

In the next test the target is T2, PTP1B (1–321) (Homo sapiens, UniProt P18031).
T2 sequence (P18031 1-321): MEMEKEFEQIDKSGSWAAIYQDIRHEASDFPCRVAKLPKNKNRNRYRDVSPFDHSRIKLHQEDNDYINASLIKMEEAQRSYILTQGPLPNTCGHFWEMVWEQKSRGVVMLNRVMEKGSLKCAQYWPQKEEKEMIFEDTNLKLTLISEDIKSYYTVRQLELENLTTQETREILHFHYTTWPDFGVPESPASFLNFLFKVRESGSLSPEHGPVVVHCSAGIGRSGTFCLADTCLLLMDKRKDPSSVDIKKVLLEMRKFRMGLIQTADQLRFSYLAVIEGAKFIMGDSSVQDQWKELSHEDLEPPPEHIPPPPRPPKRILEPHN
As to the kind of experiment: PTP1B inhibition assay with DiFMUP as substrate.

Read-outs that look alike come from different tables or passages of the source.

As usually defined, the IC50 is the concentration that gives 50% inhibition. On to `O=S(=O)(O)c1ccc2cc(N=Nc3cc(S(=O)(=O)O)c4cccnc4c3O)ccc2c1` [NSC-87877], for which the IC50 on TCPTP (13–358) worked out at 71.9 ± 3.87 µM; on PTP1B (1–321) (PTP1B, Table 3, means ± SD of three replications) it was 26.2 ± 8.58 µM; on PTP1B (1–321) (read-out: IC50 PTP1B, means ± SD of three replications) it was 26.2 ± 8.58 µM.
